Reference: US20090306074A1, “THIAZOLIDINEDIONE DERIVATIVES AS P13 KINASE INHIBITORS” (priority 2006, published 2009)
Read-outs that look alike come from different tables or passages of the source. Each block holds one compound with its values, some of them ahead of it.

What was measured:
CK2 protein kinase = CK2 protein kinase (Homo sapiens, UniProt P68400); details: cited from earlier work
Class I PI3-kinases = details: cited from earlier work
PI3Kα = target: T1, PI3Kα (Homo sapiens, UniProt P42336); assay: PI3K Alpha Leadseeker SPA Assay; assay type: biochemical; details: His-p110/p85 PI3K alpha, P33-ATP, PEI-PS Leadseeker beads; read-out: IC50 against PI3Kα
T1 construct: His
T1 sequence (P42336 whole entry): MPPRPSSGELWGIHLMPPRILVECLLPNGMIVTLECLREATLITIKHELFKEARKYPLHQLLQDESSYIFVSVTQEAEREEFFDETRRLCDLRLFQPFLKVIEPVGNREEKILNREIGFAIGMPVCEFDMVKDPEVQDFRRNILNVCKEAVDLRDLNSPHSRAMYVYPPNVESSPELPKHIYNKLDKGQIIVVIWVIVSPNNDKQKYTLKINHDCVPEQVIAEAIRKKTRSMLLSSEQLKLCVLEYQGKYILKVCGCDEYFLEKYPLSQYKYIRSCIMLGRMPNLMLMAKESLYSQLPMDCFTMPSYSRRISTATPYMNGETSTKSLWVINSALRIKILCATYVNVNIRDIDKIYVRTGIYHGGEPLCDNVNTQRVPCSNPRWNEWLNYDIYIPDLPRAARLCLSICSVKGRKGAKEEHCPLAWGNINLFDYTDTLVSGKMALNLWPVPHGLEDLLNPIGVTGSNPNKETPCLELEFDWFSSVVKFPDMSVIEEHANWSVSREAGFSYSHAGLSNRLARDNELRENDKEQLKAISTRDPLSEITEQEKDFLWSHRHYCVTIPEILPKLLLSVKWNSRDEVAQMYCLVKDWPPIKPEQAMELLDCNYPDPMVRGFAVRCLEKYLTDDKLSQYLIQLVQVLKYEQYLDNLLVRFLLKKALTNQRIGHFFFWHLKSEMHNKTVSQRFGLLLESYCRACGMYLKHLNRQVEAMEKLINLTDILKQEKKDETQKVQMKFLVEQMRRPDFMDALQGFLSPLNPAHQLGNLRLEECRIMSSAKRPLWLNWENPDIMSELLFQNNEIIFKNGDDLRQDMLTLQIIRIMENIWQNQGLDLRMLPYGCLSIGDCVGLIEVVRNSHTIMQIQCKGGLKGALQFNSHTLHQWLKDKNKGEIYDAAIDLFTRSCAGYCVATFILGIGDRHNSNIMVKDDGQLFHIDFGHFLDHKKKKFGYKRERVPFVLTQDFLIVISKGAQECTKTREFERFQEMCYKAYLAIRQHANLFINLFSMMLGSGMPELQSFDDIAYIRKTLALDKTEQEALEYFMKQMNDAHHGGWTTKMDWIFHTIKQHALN
T1 sequence (P27986 whole entry partner): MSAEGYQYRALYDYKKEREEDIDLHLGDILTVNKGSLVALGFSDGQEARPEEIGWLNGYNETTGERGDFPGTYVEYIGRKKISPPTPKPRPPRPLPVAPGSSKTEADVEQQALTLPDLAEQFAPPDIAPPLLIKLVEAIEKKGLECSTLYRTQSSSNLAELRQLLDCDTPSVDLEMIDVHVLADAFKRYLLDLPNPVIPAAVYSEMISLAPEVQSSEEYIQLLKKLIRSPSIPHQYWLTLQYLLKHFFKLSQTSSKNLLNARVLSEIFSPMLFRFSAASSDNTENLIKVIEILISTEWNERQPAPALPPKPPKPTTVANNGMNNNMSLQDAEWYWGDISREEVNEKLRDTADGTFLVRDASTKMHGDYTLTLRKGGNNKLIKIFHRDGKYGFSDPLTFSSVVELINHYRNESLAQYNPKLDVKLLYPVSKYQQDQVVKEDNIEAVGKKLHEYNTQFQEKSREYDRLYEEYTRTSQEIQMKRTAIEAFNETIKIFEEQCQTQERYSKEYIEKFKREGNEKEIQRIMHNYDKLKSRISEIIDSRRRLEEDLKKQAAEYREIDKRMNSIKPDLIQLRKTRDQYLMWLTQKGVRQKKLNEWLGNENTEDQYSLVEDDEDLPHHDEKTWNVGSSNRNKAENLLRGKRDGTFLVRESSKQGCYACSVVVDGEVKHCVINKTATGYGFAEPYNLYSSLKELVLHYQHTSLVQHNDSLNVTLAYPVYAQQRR
Experimental: PI3K Alpha Leadseeker SPA Assay
Compounds of the present invention were tested according to the following assays and found as inhibitors of PI3 kinases, particularly PI3Kα. The activities (IC50) range from 1 nM to 500 μM against PI3Kα.
SPA imaging beads are microspheres containing scintillant which emit light in the red region of the visible spectrum. As a result, these beads are ideally suited to use with a CCD imager such as the Viewlux. The Leadseeker beads used in this system are polystyrene beads that have been coupled with polyethyleneimine. When added to the assay mixture, the beads absorb both the substrate (PIP2) and product (PIP3). Adsorbed P^33-PIP3 will cause an increase in signal, measured as ADUs (analog to digital units). This protocol details the use of the PEI-PS Leadseeker beads for assays using His-p110/p85 PI3K alpha.
Solid compounds are typically plated with 0.1 μl of 100% DMSO in all wells (except column 6 and 18) of a 384-well, flat bottom, low volume plate (Greiner 784075). The compounds are serially diluted (3-fold in 100% DMSO) across the plate from column 1 to column 12 and column 13 to column 24 and leave column 6 and 18 containing only DMSO to yield 11 concentrations for each test compound. […] The signal is determined using a Viewlux detector and is then imported into curve fitting software (Activity Base) for construction of concentration response curves. […]

CK2 protein kinase, sequence (P68400 whole entry): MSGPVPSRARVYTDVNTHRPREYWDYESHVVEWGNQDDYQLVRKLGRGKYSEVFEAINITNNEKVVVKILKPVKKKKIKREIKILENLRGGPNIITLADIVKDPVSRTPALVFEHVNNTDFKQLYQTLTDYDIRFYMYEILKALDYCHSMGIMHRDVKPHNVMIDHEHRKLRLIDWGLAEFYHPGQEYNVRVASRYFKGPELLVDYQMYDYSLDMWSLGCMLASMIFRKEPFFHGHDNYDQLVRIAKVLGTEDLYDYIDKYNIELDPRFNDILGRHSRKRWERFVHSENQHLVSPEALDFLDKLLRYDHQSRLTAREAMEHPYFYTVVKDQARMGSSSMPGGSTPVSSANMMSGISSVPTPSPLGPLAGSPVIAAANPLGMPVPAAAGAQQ

Structure (SMILES): O=c1cc(N2CCOCC2)oc2c(-c3ccccc3)cccc12 [LY294002]
IC50 (CK2 protein kinase): 5000 to 10000 nM
IC50 (Class I PI3-kinases; read-out: IC50 values against each of these PI3-kinases): 15000 to 20000 nM

IC50 (PI3Kα): 1 nM
Structure (SMILES): O=C1NC(=O)/C(=C/c2ccc3nccc(-c4ccncc4)c3c2)S1 [Example 1, (5Z)-5-{[4-(4-pyridinyl)-6-quinolinyl]methylidene}-1,3-thiazolidine-2,4-dione]

Structure (SMILES): COC[C@H]1OC(=O)c2coc3c2[C@@]1(C)C1=C(C3=O)[C@@H]2CCC(=O)[C@@]2(C)C[C@H]1OC(C)=O [wortmannin]
IC50 (Class I PI3-kinases; read-out: IC50 values against each of the various Class I PI3-kinases): 1 to 10 nM
